Data published in US12495798B2, “Nicotinamide compound and herbicidal composition comprising compound” (KOREA RESEARCH INSTITUTE OF CHEMICAL TECHNOLOGY, priority 2019, dated 2025).

Tests used:
Type in all cases: in vivo
sorghum = assay: Herbicidal activity test against upland field weeds (foliar treatment test); set-up: key to Foliar treatment herbicidal activity, Sorghum: 0 (no control); 100 (complete control); details: 50 g ai/ha, scale 0-100; for plant injury at 50 g/ha: Sorghum
Procedure: (§1) Experimental Example 1: Herbicidal Activity Test Against Upland Field Weeds (Foliar Treatment Test) Foliar treatment was performed as follows: After filling a square plastic pot having a surface area of 350 cm^2 with horticultural soil, seeds (10˜15 grains) or rootstocks (2 pieces) of 5 kinds of grassy weeds of sorghum, barnyard grass, quack grass, crabgrass, fall panicum, and 5 kinds of broadleaf weeds of black nightshade, indian jointvetch, velvetleaf, cocklebur, bindweed, which had been stored in a low temperature (6° C.), were sown. After growing for a certain period in greenhouse conditions (average temperature 30±5° C., light/dark=14/10 hours), test compound solutions were made by diluting with a preparation solution (including 50% acetone, 0.1% Tween-20) so that the final treatment amount of the test compounds was 50 or 75 g a.i./ha. The prepared test compound solution was used for treating foliage by hand-spraying 14 mL per pot in a fume hood. After the treatment, it was managed under the same greenhouse conditions as above, and after 14 days (after 21 days if necessary), the external symptoms and efficacy were investigated according to the scale of 0 (no control) to 100 (complete control). The results of Table 7 were obtained by evaluating weed control value to the untreated control by conducting visual assessment.

barnyard grass = assay: as above; set-up: key to Foliar treatment herbicidal activity, barnyard grass: 0 (no control); 100 (complete control); details: 50 g ai/ha, scale 0-100; for pest or weed control at 50 g/ha: Echinochloa crus-galli
Procedure: as §1

quack grass = assay: as above; set-up: key to Foliar treatment herbicidal activity, quack grass: 0 (no control); 100 (complete control); details: 50 g ai/ha, scale 0-100
Procedure: as §1

crabgrass = assay: as above; details: 50 g ai/ha, scale 0-100; for pest or weed control at 50 g/ha: Digitaria sanguinalis
Procedure: as §1

fall panicum = assay: as above; details: 50 g ai/ha, scale 0-100; for pest or weed control at 50 g/ha: Panicum dichotomiflorum
Procedure: as §1

black nightshade = assay: as above; set-up: key to Foliar treatment herbicidal activity, black nightshade: 0 (no control); 100 (complete control); details: 50 g ai/ha, scale 0-100
Procedure: as §1

indian jointvetch = assay: as above; set-up: key to Foliar treatment herbicidal activity, Indian jointvetch: 0 (no control); 100 (complete control); details: 50 g ai/ha, scale 0-100
Procedure: as §1

velvetleaf = assay: as above; set-up: key to Foliar treatment herbicidal activity, velvet leaf: 0 (no control); 100 (complete control); details: 50 g ai/ha; for pest or weed control at 50 g/ha: Abutilon theophrasti, scale 0-100, read-out: Foliar treatment herbicidal activity, velvet leaf; for Foliar treatment herbicidal activity, velvet leaf: scale 0-100
Procedure: as §1

cocklebur = assay: as above; details: 50 g ai/ha, scale 0-100; for pest or weed control at 50 g/ha: Xanthium strumarium
Procedure: as §1

bindweed = assay: as above; details: 50 g ai/ha, scale 0-100
Procedure: as §1

corn = assay: Phytotoxicity test for upland field crops (foliar treatment test); set-up: key: 0 (no harm); 9 (complete withered)
Procedure: (§2) Experimental Example 3: Phytotoxicity Test for Upland Field Crops (Foliar Treatment Test)
(§3) Foliar treatment was performed for grown crops and weeds in a square plastic pot having a surface area of 50 cm^2 filled with horticultural soil. As a fertilizer per pot, 0.5 g of horticultural mixed fertilizer (N:P:K=17:21:17) was treated by mixing in the upper soil. Five kinds of crops such as rice, wheat, corn, soybean, and cotton were sown in each pot, and after growing for a certain period in greenhouse conditions (average temperature 30±5° C., light/dark=14/10 hours), test compound solutions were made by diluting with the diluent (33% acetone, 0.1% Tween-20) so that the final treatment amount of the test compounds was 19˜300 g a.i./ha. The prepared test compound solutions were treated using a spray booth (SB6-016) at a treatment amount of 100 ml per 1 m^2 of treatment area. The treated plants were managed under the same greenhouse conditions as above, and external symptoms and phytotoxicity were investigated 7 and 14 days after treatment (after 21 days if necessary). In the evaluation of the phytotoxicity for the crop, the grade of 0 (no harm) to 9 (complete withered) was used. The results of Table 9 were obtained by evaluating crop phytotoxicity value to the untreated control.

wheat = assay: as above; set-up: key: 0 (no harm); 9 (complete withered)
Procedure: as §2, §3

[1] = 50 g ai/ha, Corn (7 days after treatment)
[2] = 50 g ai/ha, Corn (14 days after treatment)
[3] = 100 g ai/ha, Corn (7 days after treatment)
[4] = 100 g ai/ha, Corn (14 days after treatment)
[5] = 50 g ai/ha, Wheat (7 days after treatment)
[6] = 50 g ai/ha, Wheat (14 days after treatment)
[7] = 100 g ai/ha, Wheat (7 days after treatment)
[8] = 100 g ai/ha, Wheat (14 days after treatment)

Structure (SMILES): CCn1nnc(COCc2nc(C(F)(F)F)ccc2C(=O)Nc2nnnn2CC)n1 [Compound No. 2-88, N-(1-ethyl-1H-tetrazol-5-yl)-2-(((2-ethyl-2H-tetrazol-5-yl)methoxy)methyl)-6-(trifluoromethyl)nicotinamide]
- Foliar treatment herbicidal activity, Sorghum (sorghum): 0
- Foliar treatment herbicidal activity, barnyard grass (barnyard grass): 0
- Foliar treatment herbicidal activity, quack grass (quack grass): 0
- pest or weed control at 50 g/ha (crabgrass): 20%
- pest or weed control at 50 g/ha (fall panicum): 40%
- Foliar treatment herbicidal activity, black nightshade (black nightshade): 100
- pest or weed control at 50 g/ha (indian jointvetch): 60%
- pest or weed control at 50 g/ha (velvetleaf): 70%
- pest or weed control at 50 g/ha (cocklebur): 70%
- pest or weed control at 50 g/ha (bindweed): 70%
- Foliar treatment phytotoxicity, Corn (corn; [1]): 0
- Foliar treatment phytotoxicity, Corn (corn; [2]): 0
- Foliar treatment phytotoxicity, Corn (corn; [3]): 0
- Foliar treatment phytotoxicity, Corn (corn; [4]): 0
- Foliar treatment phytotoxicity, Wheat (wheat; [5]): 0
- Foliar treatment phytotoxicity, Wheat (wheat; [6]): 0
- Foliar treatment phytotoxicity, Wheat (wheat; [7]): 0
- Foliar treatment phytotoxicity, Wheat (wheat; [8]): 0

Structure (SMILES): COCn1nnc(COCc2nc(C(F)(F)F)ccc2C(=O)Nc2nnnn2C)n1 [Compound No. 2-91, 2-(((2-(methoxymethyl)-2H-tetrazol-5-yl)methoxy)methyl)-N-(1-methyl-1H-tetrazol-5-yl)-6-(trifluoromethyl)nicotinamide]
- plant injury at 50 g/ha (sorghum): 50%
- pest or weed control at 50 g/ha (barnyard grass): 80%
- Foliar treatment herbicidal activity, quack grass (quack grass): 0
- pest or weed control at 50 g/ha (crabgrass): 90%
- pest or weed control at 50 g/ha (fall panicum): 70%
- Foliar treatment herbicidal activity, black nightshade (black nightshade): 100
- pest or weed control at 50 g/ha (indian jointvetch): 95%
- pest or weed control at 50 g/ha (velvetleaf): 98%
- pest or weed control at 50 g/ha (cocklebur): 98%
- pest or weed control at 50 g/ha (bindweed): 70%
- Foliar treatment phytotoxicity, Corn (corn; [1]): 2
- Foliar treatment phytotoxicity, Corn (corn; [2]): 1
- Foliar treatment phytotoxicity, Corn (corn; [3]): 3
- Foliar treatment phytotoxicity, Corn (corn; [4]): 3
- Foliar treatment phytotoxicity, Wheat (wheat; [5]): 0
- Foliar treatment phytotoxicity, Wheat (wheat; [6]): 0
- Foliar treatment phytotoxicity, Wheat (wheat; [7]): 0
- Foliar treatment phytotoxicity, Wheat (wheat; [8]): 0

Structure (SMILES): CCn1nnnc1NC(=O)c1ccc(C(F)(F)F)nc1COCc1nc(C(F)(F)F)n(C)n1 [Compound No. 2-119, N-(1-ethyl-1H-tetrazol-5-yl)-2-(((1-methyl-5-(trifluoromethyl)-1H-1,2,4-triazol-3-yl)methoxy)methyl)-6-(trifluoromethyl)nicotinamide]
- plant injury at 50 g/ha (sorghum): 20%
- pest or weed control at 50 g/ha (barnyard grass): 95%
- pest or weed control at 50 g/ha (quack grass): 30%
- pest or weed control at 50 g/ha (crabgrass): 95%
- pest or weed control at 50 g/ha (fall panicum): 90%
- pest or weed control at 50 g/ha (black nightshade; Solanum nigrum): 98%
- pest or weed control at 50 g/ha (indian jointvetch): 60%
- pest or weed control at 50 g/ha (velvetleaf): 50%
- pest or weed control at 50 g/ha (cocklebur): 90%
- pest or weed control at 50 g/ha (bindweed): 80%
- Foliar treatment phytotoxicity, Corn (corn; [1]): 0
- Foliar treatment phytotoxicity, Corn (corn; [2]): 0
- Foliar treatment phytotoxicity, Corn (corn; [3]): 0
- Foliar treatment phytotoxicity, Corn (corn; [4]): 0
- Foliar treatment phytotoxicity, Wheat (wheat; [5]): 0
- Foliar treatment phytotoxicity, Wheat (wheat; [6]): 0
- Foliar treatment phytotoxicity, Wheat (wheat; [7]): 0
- Foliar treatment phytotoxicity, Wheat (wheat; [8]): 0

Structure (SMILES): C=CCn1nnnc1NC(=O)c1ccc(C(F)(F)F)nc1COCc1nnn(CC)n1 [Compound No. 2-90, N-(1-allyl-1H-tetrazol-5-yl)-2-(((2-ethyl-2H-tetrazol-5-yl)methoxy)methyl)-6-(trifluoromethyl)nicotinamide]
- plant injury at 50 g/ha (sorghum): 20%
- pest or weed control at 50 g/ha (barnyard grass): 98%
- Foliar treatment herbicidal activity, quack grass (quack grass): 0
- pest or weed control at 50 g/ha (crabgrass): 70%
- pest or weed control at 50 g/ha (fall panicum): 60%
- Foliar treatment herbicidal activity, black nightshade (black nightshade): 100
- pest or weed control at 50 g/ha (indian jointvetch): 80%
- pest or weed control at 50 g/ha (velvetleaf): 98%
- pest or weed control at 50 g/ha (cocklebur): 70%
- pest or weed control at 50 g/ha (bindweed): 70%
- Foliar treatment phytotoxicity, Corn (corn; [1]): 0
- Foliar treatment phytotoxicity, Corn (corn; [2]): 0
- Foliar treatment phytotoxicity, Corn (corn; [3]): 0
- Foliar treatment phytotoxicity, Corn (corn; [4]): 0
- Foliar treatment phytotoxicity, Wheat (wheat; [5]): 0
- Foliar treatment phytotoxicity, Wheat (wheat; [6]): 0
- Foliar treatment phytotoxicity, Wheat (wheat; [7]): 0
- Foliar treatment phytotoxicity, Wheat (wheat; [8]): 0

Structure (SMILES): CCCn1nnnc1NC(=O)c1ccc(C(F)(F)F)nc1COCc1nc(C(F)F)n(C)n1 [Compound No. 2-124]
- Foliar treatment herbicidal activity, Sorghum (sorghum): 40
- Foliar treatment herbicidal activity, barnyard grass (barnyard grass): 90
- Foliar treatment herbicidal activity, quack grass (quack grass): 20
- Foliar treatment herbicidal activity, Crabgrass (crabgrass): 95
- Foliar treatment herbicidal activity, Fall panicum (fall panicum): 90
- Foliar treatment herbicidal activity, black nightshade (black nightshade): 95
- Foliar treatment herbicidal activity, Indian jointvetch (indian jointvetch): 60
- Foliar treatment herbicidal activity, velvet leaf (velvetleaf): 60
- Foliar treatment herbicidal activity, Cocklebur (cocklebur): 80
- Foliar treatment herbicidal activity, Bindweed (bindweed): 70
- Foliar treatment phytotoxicity, Corn (corn; [1]): 2
- Foliar treatment phytotoxicity, Corn (corn; [2]): 1
- Foliar treatment phytotoxicity, Corn (corn; [3]): 3
- Foliar treatment phytotoxicity, Corn (corn; [4]): 2
- Foliar treatment phytotoxicity, Wheat (wheat; [5]): 0
- Foliar treatment phytotoxicity, Wheat (wheat; [6]): 1
- Foliar treatment phytotoxicity, Wheat (wheat; [7]): 1
- Foliar treatment phytotoxicity, Wheat (wheat; [8]): 1

Structure (SMILES): CCCn1nnnc1NC(=O)c1ccc(C(F)(F)F)nc1COCc1nnn(CC)n1 [Compound No. 2-89, 2-(((2-ethyl-2H-tetrazol-5-yl)methoxy)methyl)-N-(1-propyl-1H-tetrazol-5-yl)-6-(trifluoromethyl)nicotinamide]
- plant injury at 50 g/ha (sorghum): 50%
- pest or weed control at 50 g/ha (barnyard grass): 95%
- Foliar treatment herbicidal activity, quack grass (quack grass): 0
- pest or weed control at 50 g/ha (crabgrass): 60%
- pest or weed control at 50 g/ha (fall panicum): 90%
- Foliar treatment herbicidal activity, black nightshade (black nightshade): 100
- pest or weed control at 50 g/ha (indian jointvetch): 40%
- pest or weed control at 50 g/ha (velvetleaf): 50%
- pest or weed control at 50 g/ha (cocklebur): 90%
- pest or weed control at 50 g/ha (bindweed): 70%
- Foliar treatment phytotoxicity, Corn (corn; [1]): 0
- Foliar treatment phytotoxicity, Corn (corn; [2]): 0
- Foliar treatment phytotoxicity, Corn (corn; [3]): 0
- Foliar treatment phytotoxicity, Corn (corn; [4]): 0
- Foliar treatment phytotoxicity, Wheat (wheat; [5]): 0
- Foliar treatment phytotoxicity, Wheat (wheat; [6]): 0
- Foliar treatment phytotoxicity, Wheat (wheat; [7]): 0
- Foliar treatment phytotoxicity, Wheat (wheat; [8]): 0

Structure (SMILES): Cn1nc(COCc2nc(C(F)(F)F)ccc2C(=O)Nc2nnnn2C)nc1I [Compound No. 2-137]
- Foliar treatment herbicidal activity, Sorghum (sorghum): 60
- Foliar treatment herbicidal activity, barnyard grass (barnyard grass): 95
- Foliar treatment herbicidal activity, quack grass (quack grass): 0
- Foliar treatment herbicidal activity, Crabgrass (crabgrass): 95
- Foliar treatment herbicidal activity, Fall panicum (fall panicum): 50
- Foliar treatment herbicidal activity, black nightshade (black nightshade): 100
- Foliar treatment herbicidal activity, Indian jointvetch (indian jointvetch): 100
- Foliar treatment herbicidal activity, velvet leaf (velvetleaf): 100
- Foliar treatment herbicidal activity, Cocklebur (cocklebur): 98
- Foliar treatment herbicidal activity, Bindweed (bindweed): 70
- Foliar treatment phytotoxicity, Corn (corn; [1]): 0
- Foliar treatment phytotoxicity, Corn (corn; [2]): 0
- Foliar treatment phytotoxicity, Corn (corn; [3]): 0
- Foliar treatment phytotoxicity, Corn (corn; [4]): 0
- Foliar treatment phytotoxicity, Wheat (wheat; [5]): 0
- Foliar treatment phytotoxicity, Wheat (wheat; [6]): 0
- Foliar treatment phytotoxicity, Wheat (wheat; [7]): 0
- Foliar treatment phytotoxicity, Wheat (wheat; [8]): 0
